Target: T1, thrombin (Bos taurus, UniProt P00735)
T1 construct: purchased Sigma T-3399
Assay: biological assay for thrombin inhibitory activity (fluorogenic substrate)
Assay type: biochemical
Conditions: for inhibition at 50 µM: test probe concentration 50 μM; for inhibition at 100 µM: test probe concentration 100 μM
Protocol: The biological assay (28320) for thrombin inhibitory activity is detailed below. To Nunc 96-well black fluorescence plate wells is added 70 microliters of assay buffer, followed by 10 microliters of 1 millimolar substrate solution. Test probe (10 microliters in 30% DMSO) is then added to wells according to the desired concentrations for the assay. The mixture is incubated at 37° C. for 5 minutes, followed by addition of 10 microliters of thrombin (100 micrograms/mL in assay buffer), to make a final assay volume of 100 microliters. The plate is mixed gently and incubated 15 minutes at 37° C. Stop buffer (100 microliters) is added, and the plate is read by detecting emission at 460 nm. Percent inhibition of test compound is calculated by comparison with control wells. “Assay buffer” is composed of 100 mM KH2PO4, 100 mM Na2HPO4, 1 mM EDTA, 0.01% BRIJ-35, and 1 mM dithiothreitol (added fresh on the day assay is preformed). “Stop buffer” is composed of 100 mM Na—O(O)CCH2Cl and 30 mM sodium acetate which is brought to pH 2.5 with glacial acetic acid. Thrombin was purchased from Sigma (cat #T-3399). Thrombin substrate III fluorogenic was purchased from ICN (cat #195915). Sodium acetate, dithiothreitol, and Brij-35 were purchased from Sigma. Sodium monochloroacetate was purchased from Lancaster 223-498-3. Glacial acetic acid was purchased from Alfa Aesar (cat #33252). Thrombin was stored at −20° C. Thrombin substrate fluorogenic was stored at −20° C. (5 mM in DMSO).
Results are expressed as percentage inhibition at a given test probe concentration in the Table below;

inhibition at 50 µM [%]	inhibition at 100 µM [%]	Compound
10 to 39	40 to 74	COc1ccc(CNC(=O)c2cc(Cl)ccc2NC(=O)c2n[nH]c3ccccc23)cc1OC [Example B1]
10 to 39	40 to 74	C[C@@H](NC(=O)C(NC(=O)c1n[nH]c2ccccc12)C1CCNCC1)c1ccccc1 (stereo partly drawn) [Example B3]
10 to 39	40 to 74	CCCCN(CCCC)CCCNC(=O)c1cc(Cl)ccc1NC(=O)c1n[nH]c2ccccc12 [Example B2]
